One series has as its target T1, CYP2C8 (Homo sapiens, UniProt P10632).
T1 construct: purchased Life Technologies PV6138; host or cells: Baculosomes
T1 sequence (P10632 1-490): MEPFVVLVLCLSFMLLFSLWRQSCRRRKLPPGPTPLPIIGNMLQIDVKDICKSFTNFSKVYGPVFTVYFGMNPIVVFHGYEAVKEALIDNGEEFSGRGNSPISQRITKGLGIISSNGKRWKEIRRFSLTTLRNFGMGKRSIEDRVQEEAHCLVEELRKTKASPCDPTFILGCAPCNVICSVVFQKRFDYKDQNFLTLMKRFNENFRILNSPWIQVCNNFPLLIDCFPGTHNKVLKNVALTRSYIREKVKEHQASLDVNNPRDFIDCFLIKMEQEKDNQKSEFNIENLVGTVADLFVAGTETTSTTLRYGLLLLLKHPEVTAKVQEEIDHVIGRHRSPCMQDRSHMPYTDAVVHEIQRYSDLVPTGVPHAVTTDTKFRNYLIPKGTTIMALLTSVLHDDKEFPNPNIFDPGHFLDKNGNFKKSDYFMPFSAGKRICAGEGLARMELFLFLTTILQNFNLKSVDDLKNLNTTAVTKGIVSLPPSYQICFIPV
The series can be described thus: CYP450 inhibition, CYP2C8 Baculosomes, Vivid DBOMF substrate. The class given is in vitro ADME. The procedure:
(§1) Methods and Procedure: The study was performed in agreement with previously described procedures to assure data integrity and adherence to GLP standards. Briefly, recombinant human CYP450 isoenzymes were used to metabolize pro-fluorescent probe substrates to fluorescent products. IC50 values determined from the effect of test compounds on the metabolism of these probe substrates were then used to determine inhibitory potency against CYP450 isoforms.
The test system was based on a three-step procedure with a “mix and read” format, where PGP-432,TI reaction and reading were performed at 37° C. […] Fluorescence was measured in kinetic mode (1 read/minutes for 10 minutes), and the fluorescence rate was calculated. […]
Next, 10 μL/well from the compound plate was added and incubated for 10 minutes at 37° C. on a plate shaker, while a mixture of Vivid Substrate and Vivid NADP+ in Vivid CYP450 Reaction Buffer was prepared. The reaction was initiated by adding 10 μL/well of the Vivid Substrate and NADP+ mixture, before transferring the plate into the fluorescent plate reader (immediately, within 2 minutes), and fluorescence was monitored every minute for 10 minutes according to the specific protocol. Regarding data analysis, the inhibition effect is expressed as a percentage. […]

In the next series the target is T2, CYP3A4 (Homo sapiens, UniProt P08684).
T2 construct: purchased Life Technologies P2377; host or cells: Baculosomes
T2 sequence (P08684 whole entry): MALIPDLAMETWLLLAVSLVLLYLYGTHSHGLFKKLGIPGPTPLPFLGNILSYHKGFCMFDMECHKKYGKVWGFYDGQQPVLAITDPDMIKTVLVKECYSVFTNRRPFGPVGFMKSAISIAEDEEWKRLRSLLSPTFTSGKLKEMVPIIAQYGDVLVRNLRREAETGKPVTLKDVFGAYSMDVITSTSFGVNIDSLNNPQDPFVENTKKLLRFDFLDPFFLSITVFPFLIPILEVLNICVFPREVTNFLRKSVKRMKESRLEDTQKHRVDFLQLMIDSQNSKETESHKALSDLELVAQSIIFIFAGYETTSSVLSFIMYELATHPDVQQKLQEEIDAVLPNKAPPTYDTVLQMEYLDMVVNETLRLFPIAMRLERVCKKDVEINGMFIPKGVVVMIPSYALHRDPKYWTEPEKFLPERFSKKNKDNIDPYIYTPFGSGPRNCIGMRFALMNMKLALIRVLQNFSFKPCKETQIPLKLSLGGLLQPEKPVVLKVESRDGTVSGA
In words: CYP450 inhibition, fluorescent probes 7BQ and DBOMF: CYP3A4. It is filed as in vitro ADME. The note with it: for IC50 at 10 min: human. The procedure: as §1
The test system was based on a three-step procedure with a “mix and read” format, where PGP-432,TI reaction and reading were performed at 37° C. The assays described herein measure in vitro inhibitory effects (pIC50) of compounds on the human P450 isoforms (1A2, 2B6, 2C8, 2C9, 2C19, 2D6, 3A4) expressed in recombinant microsomes. Pro-fluorescent probe substrates were metabolized to fluorescent products by the enzymes. Fluorescence was measured in kinetic mode (1 read/minutes for 10 minutes), and the fluorescence rate was calculated.
Inhibition of the fluorescent signal resulting from P450 activation indicated inhibitory activity and facilitated calculation of the compound pIC50. […] Concentration response curves (CRCs) of compounds were run on two different test occasions (n=2) by preparing serial dilutions from the dame compound stock solution.
To prepare the compound plate, test compounds serial dilutions 1 to 3 were performed from a 10 mM stock solution in DMSO by Biomek FX to generate 10 point CRC with the highest concentrations in columns 3 and 13.
100% DMSO was placed in columns 1 and 2 and used for assay low controls. CYP inhibitor (10 mM miconazole solution in DMSO) was placed in columns 23 and 24 and served as an assay high controls. 1 μL copy plates were then stamped into V-bottom drug plates at a concentration that is 200 fold the final assay concentration. The copy plates were diluted prior to the experiment with assay buffer to reach 4 times the final assay concentration (2% w/v DMSO).
A reference compound (e.g., miconazole) was included in each compound plate in row A, column 3 and 13. The reference compound was diluted and stamped together with test compounds. The final concentrations of the 10 point CRCs of test compounds in the assay plate were 5.00E-05; 1.67E-05; 5.56E-06; 1.85E-06; 6.17E-07; 2.06E-07; 6.86E-08; 2.29E-08; 7.62E-09 and 2.54E-09, respectively. […]
Microsomes were added to the buffer prior to the substrate addition. […] For fluorescence measurement, 10 μL/well of the test compounds were transferred from the compound plate to the assay plate using Biomek FX and the appropriate protocol. […]
10 μL/well of the cofactor was then added to the assay plate using the Multidrop before placing the assay plate in the plate reader EnVision to measure fluorescence. […]

Like-named read-outs stand apart in the source and are kept apart here.

Broadly, the IC50 is the concentration at which inhibition is half-maximal. On to `Clc1ccc(C23CNC(CO2)C3)cc1Cl` (stereo not drawn) [522A, 1-(3,4-dichlorophenyl)-2-oxa-5-azabicyclo[2.2.1]heptane], for which the IC50 at CYP2C8 (recombinant human CYP2C8) is greater than 50 µM; at CYP3A4 (recombinant human CYP3A4, substrate 7BQ, read-out: CYP450 Inhibition (IC50), CYP3A4 (7BQ)), greater than 50 µM; at CYP3A4 (recombinant human CYP3A4, substrate DBOMF, read-out: CYP450 Inhibition (IC50), CYP3A4 (DBOMF)), greater than 50 µM.
For the compound `CNC(C)Cc1ccc2c(c1)OCO2` (stereo not drawn) [MDMA, reference compound], the IC50 at 10 min on CYP2C8 (human, recombinant CYP2C8 Baculosomes, pH 8, probe Vivid DBOMF) is 50 µM; on CYP3A4 (recombinant CYP3A4 Baculosomes, pH 8, probe Vivid DBOMF), 50 µM; at CYP3A4 (recombinant microsomes expressing CYP3A4, probe 7BQ), 50 µM.
